Test: Measurement of solubility in water
Format: physicochemical
Conditions: 200 g/L in 15° C. water

Row | Substance | proportion of the complex compound dissolved [%] | proportion of the complex compound precipitated [%] | time for dissolution (100% dissolved) [min]
1 | iron-citrate complex compound [Comparative Example 1] | 10 | 90 | 
2 | iron-citrate complex compound [Example 1] | 100 |  | ≤ 5

Reference: patent publication US20240034744A1, “COMPLEX COMPOUND OF COMPRISING THE CITRATE AND IRON ION AND THE FOOD COMPOSITION COMPRISING THE SAME” (priority 2022, published 2024)
